For 2 substances, Cleavage and Turnover results are on record in patent publication US20030055052A1, “FAP-activated anti-tumor compounds” (priority 2000, published 2003).

For this assay, the target named is T1, FAP (Homo sapiens, UniProt Q12884).
T1 construct: expressed in transfected cells; host or cells: human embryonic kidney 293 cells stably transfected with pFAP.38; cell extract used
T1 sequence (Q12884 1-760): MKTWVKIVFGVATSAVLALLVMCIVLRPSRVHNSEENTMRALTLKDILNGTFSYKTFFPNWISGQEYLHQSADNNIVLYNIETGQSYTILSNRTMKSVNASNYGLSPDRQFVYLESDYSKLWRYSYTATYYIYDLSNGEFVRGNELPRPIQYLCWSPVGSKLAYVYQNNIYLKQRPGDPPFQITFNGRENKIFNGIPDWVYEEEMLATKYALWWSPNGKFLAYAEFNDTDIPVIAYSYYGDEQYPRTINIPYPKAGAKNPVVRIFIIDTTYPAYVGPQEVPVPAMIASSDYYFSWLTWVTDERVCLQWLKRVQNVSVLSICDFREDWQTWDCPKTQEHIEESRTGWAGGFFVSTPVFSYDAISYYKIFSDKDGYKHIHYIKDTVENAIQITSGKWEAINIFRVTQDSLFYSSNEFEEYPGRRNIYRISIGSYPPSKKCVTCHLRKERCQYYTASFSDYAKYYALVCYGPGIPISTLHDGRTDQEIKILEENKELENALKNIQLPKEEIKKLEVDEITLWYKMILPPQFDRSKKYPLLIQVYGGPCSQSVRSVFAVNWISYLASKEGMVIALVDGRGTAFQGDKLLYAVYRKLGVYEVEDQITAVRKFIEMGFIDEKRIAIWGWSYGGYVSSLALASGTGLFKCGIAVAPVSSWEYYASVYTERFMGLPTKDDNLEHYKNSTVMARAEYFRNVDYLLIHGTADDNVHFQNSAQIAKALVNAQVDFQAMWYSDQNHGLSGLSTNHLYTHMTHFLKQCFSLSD
Nature of the assay: Assay for cleavage of AMCA substrates by FAP. In kind it is biochemical. Conditions: 1 ng FAP enzyme (FAP-transfected 293 cell extract), 20 μl 2.5 mM substrate, room temperature, 1 hour; control 293 extract subtracted. As to the method:
Assay for Cleavage of AMCA Substrates by FAP:
Cell extract from 293 cells stably transfected with FAP prepared as described (see Park, et al., Fibroblast Activation Protein, a Dual Specificity Serine Protease expressed in human tumor stromal fibroblasts. (1999) J. Biol. Chem. 36505-12.). A similar extract was also prepared from parental 293 control cells without FAP. The FAP concentration in the FAP-transfected cell extract was estimated by immunoassay and 1 ng enzyme (diluted in buffer A) was used per assay. FAP-negative 293 control cell extract was used at the same dilution (also in buffer A) as a negative control. Substrate was initially dissolved in dimethylformamide at a concentration of 200 mM and diluted in buffer A to a final concentration of 2.5 mM. A few substrates were not soluble at this concentration and had to be diluted further.
10 μl 10% DMSO in buffer A
70 ll diluted FAP cell extract containing 1 ng FAP enzyme (OR control 293 cell extract without FAP)
Mix, incubate at room temperature for 1 hour, and measure fluorescence in Fluorostar fluorimeter at the following wavelengths:
AMCA conjugates: Excitation: 390 nm, Emission: 440 nm.
The fluorescence measured in the samples treated with control 293 control cell extracts without FAP is subtracted from the values measured in the samples treated with 1 ng FAP enzyme.

In turn, Z-Imi-Ala-Gly-Pro-AMCA registered a Cleavage of 0.61 µM and a Turnover of 0.12%.
Substance Z-Thz-Ala-Gly-Pro-AMCA-OH yielded a Cleavage of 1.11 µM and a Turnover of 0.22%.
